Measured values taken from paper PMC10046901, “Molecular Analysis of the Superior Efficacy of a Dual Epidermal Growth Factor Receptor (EGFR)-DNA-Targeting Combi-Molecule in Comparison with Its Putative Prodrugs 6-Mono-Alkylamino- and 6,6-Dialkylaminoquinazoline in a Human Osteosarcoma Xenograft Model” (Cells, 2023).

Experiments:
MNNG/HOS = test: cells; format: cell-based; details: 120 h, read-out: IC50 growth inhibition
[1] = target: T1, EGFR phosphorylation of tyrosine (Tyr) 1068 (Homo sapiens, UniProt P00533); test: P-EGFR in tumor tissue (immunohistochemistry, Western blot); format: in vivo; details: tumors 3 h after last dose, 80 mg/kg, N = 4
T1 construct: Western blotting in tumor samples obtained from animals treated with ZR2002, JS61, JS84 or the vehicle; from tissue; host or cells: Saos-2 xenograft tumours grown subcutaneously in NSG mice
T1 sequence (P00533 25-1210): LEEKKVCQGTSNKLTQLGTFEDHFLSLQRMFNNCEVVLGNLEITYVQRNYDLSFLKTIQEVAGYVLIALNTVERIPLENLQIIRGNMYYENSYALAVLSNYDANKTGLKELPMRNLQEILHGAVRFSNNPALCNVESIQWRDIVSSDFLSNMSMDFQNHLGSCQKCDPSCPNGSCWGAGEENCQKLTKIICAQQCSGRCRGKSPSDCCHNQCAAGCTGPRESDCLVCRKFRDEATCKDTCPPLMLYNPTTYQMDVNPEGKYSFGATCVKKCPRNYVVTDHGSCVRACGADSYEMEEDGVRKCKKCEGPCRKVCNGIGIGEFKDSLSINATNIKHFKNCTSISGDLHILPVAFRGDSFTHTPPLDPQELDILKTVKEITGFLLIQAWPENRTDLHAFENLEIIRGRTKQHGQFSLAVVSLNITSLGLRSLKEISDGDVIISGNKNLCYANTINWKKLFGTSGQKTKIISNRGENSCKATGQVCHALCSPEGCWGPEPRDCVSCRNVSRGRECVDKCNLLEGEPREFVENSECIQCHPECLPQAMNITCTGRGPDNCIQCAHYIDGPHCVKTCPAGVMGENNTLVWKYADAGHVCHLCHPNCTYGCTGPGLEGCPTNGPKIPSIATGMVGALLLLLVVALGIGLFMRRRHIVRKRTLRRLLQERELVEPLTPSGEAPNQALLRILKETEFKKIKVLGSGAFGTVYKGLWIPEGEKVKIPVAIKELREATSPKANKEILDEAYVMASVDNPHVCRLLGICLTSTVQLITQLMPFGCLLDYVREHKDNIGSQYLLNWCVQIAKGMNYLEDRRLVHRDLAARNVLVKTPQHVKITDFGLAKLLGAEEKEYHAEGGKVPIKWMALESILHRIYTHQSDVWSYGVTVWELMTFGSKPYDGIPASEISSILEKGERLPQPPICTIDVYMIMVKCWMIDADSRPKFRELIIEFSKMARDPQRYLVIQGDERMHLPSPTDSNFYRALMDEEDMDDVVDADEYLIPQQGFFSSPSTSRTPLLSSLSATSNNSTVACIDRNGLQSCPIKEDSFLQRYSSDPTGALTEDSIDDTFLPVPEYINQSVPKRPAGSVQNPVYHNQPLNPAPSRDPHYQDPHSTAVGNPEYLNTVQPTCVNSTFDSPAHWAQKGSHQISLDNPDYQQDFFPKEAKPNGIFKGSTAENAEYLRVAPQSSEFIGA
Method: (§1) In order to study the drug pharmacokinetics, 1 last dose (the 11th dose) was administered 3 h prior to sacrifice and after a break of 5 days from the previous drug administration.
(§2) At the end of the study, the mice were sacrificed, and the plasma and tumors were collected. The plasma was stored at −80 °C, and the tumor tissues were transversely cut into 2 parts: 1 was immediately frozen in liquid nitrogen and stored at −80 °C for Western blots and LC-MS analysis; the other was fixed in 4% paraformaldehyde and used for histology.
(§3) The tumors were fixed for 36 h in 4% paraformaldehyde, transferred to 70% EtOH and paraffin-embedded. Sections 4 µm thick were deparaffinized, rehydrated and incubated for 20 min at 37 °C with anti-P-EGFR (1–100, ab40815, Abcam, Cambridge, UK) or anti-P-H2AX (1–100, sc-517348, Santa Cruz Biotechnology, Dallas, TX, USA), followed by secondary Ab incubation with OmniMap anti-Rb HRP (760–4311, Roche, Basel, Switzerland) at room temperature for 16 min, followed by the detection kit ChromoMap Kit (760–4304, Roche, Basel, Switzerland), and the slides were then counterstained with hematoxylin, dehydrated, cleared and cover-slipped. The slides were digitally scanned using an Aperio scanner scope XT.
(§4) The tumor tissue samples were smashed with liquid nitrogen into a mortar, and the tumor powders were transferred to cold RIPA 1x buffer with an anti-protease and anti-phosphatase inhibitor cocktail (Roche, Basel, Switzerland) in ice for 1 h and sonicated. After centrifugation, the proteins were quantified and mixed in Laemmli buffer (Sigma-Aldrich, St. Louis, MO, USA), maintaining the same concentration.
(§5) Cell lysates or tissue lysates were loaded onto 4–20% SDS-PAGE gels (mini-protean TGx stain-free, Bio-Rad, Hercules, CA, USA) and transferred to PVDF membranes that were pre-wetted with methanol. […] The quantification of the immunoblots was performed on digitalized images using ImageLab Software 6.1 (Bio-Rad, Hercules, CA, USA). […]

[2] = Plasma and tumor metabolism by LC-MS and LC-MS/MS; format: in vivo, NSG male mice; details: 3 h after administration; for in vivo metabolism of administered drug (LC-MS): tumor and plasma; for in vivo metabolism of administered drug (LC-MS) / concentration of released ZR2002 in treated tumors relative to ZR2002-treated tumors: 80 mg/kg oral; for concentration of released ZR2002 in treated tumors relative to ZR2002-treated tumors: tumor, N = 4
Method: as §1, §2
Individual stock solutions of ZR2002 and Nitro-RB10 (IS) were prepared in DMSO at 10 mg/mL and, after, in MeOH at a concentration of 100 μg/mL. Intermediate dilutions were prepared using ACN:water (35:65, v:v). All stock and working solutions were stored at −20 °C and brought to room temperature before use.
The dynamic range for the calibration curve ranged from 0.4 to 150 ng/mL, including 0.4, 1, 5, 10, 50, 80, 100 and 150 ng/mL in plasma and tumor matrix. These standards were prepared by spiking an appropriate volume of a standard spiking solution into the blank extracted plasma or tumor and vortexing. A total of 3 levels of QC samples were run during the analysis, including a low QC of 1 ng/mL, a mid QC of 10 ng/mL and a high QC of 100 ng/mL. These QC samples were prepared by spiking an appropriate volume of the spiking solution into the matrix blank. An appropriate volume of the IS spiking solution was then spiked into the calibration standards and QC samples to generate a final IS concentration of 15 ng/mL in the matrix. All samples were vortexed gently, completing the sample preparation process.
An amount of 50 μL of each plasma sample was deproteinized with 200 µL of cold ACN. The samples were mixed for 10 s, shaken automatically for 10 min and centrifuged for 10 min at 15,000 rpm (21,130 rcf) at 4 °C. After centrifugation, the supernatants were loaded into Captiva-Enhanced Matrix Removal (EMR)-Lipid cartridges (1.0 mL; 40 mg; Agilent, Santa Clara, CA, USA) and settled for 5 min. The supernatants were eluted by applying a positive pressure (2 psi for 2 min) using a positive pressure manifold (PPM 96 processor, Agilent Techn.). The cartridges were washed with ACN:water (8:2, v:v) 100 μL, at 2–4 psi for 2 min, followed by a 1-min period of high pressure (6–9 psi) to drain the cartridges. The elutes were transferred to new tubes and dried under vacuum using a Centrivap sample concentrator (Centrivap Complete^TM, Labconco Corporation, Kansas City, MO, USA) at room temperature. The dried samples were stored at −20 °C before LC-MS analysis. On the day of analysis, the samples were reconstituted in 100 µL of MeOH, vortexed for 10 s, sonicated for 5 min (sonic bath, Symphony, VWR International, Radnor, PA, USA) and centrifuged for 5 min at 15,000 rpm. The supernatants were diluted 60 times in 35% ACN, and an appropriate volume of the IS spiking solution was then spiked into the samples to generate a final IS concentration of 15 ng/mL. At the end of the process, all samples were diluted 120 times. These final solutions were transferred to autosampler vials (350 µL, Thermo Fisher Scientific, Waltham, MA, USA), and 10 µL of each was injected into the LC-MS system.
A weighted piece of tumor was crushed in a mortar with liquid nitrogen. To the tumor powder, 150 μL of water was added before deproteinizing the mixture with 600 µL of cold ACN. The samples were mixed for 10s, sonicated with ice in a sonication bath for 30 min to 1 h (Sonicate bath, VWR, International, Radnor, PA, USA) and centrifuged for 10 min at 15,000 rpm (21,130 rcf) at 4 °C (Centrifuge 5424 R, Eppendorf). After centrifugation, the supernatants were loaded into Captiva-Enhanced Matrix Removal (EMR)-Lipid cartridges (1.0 mL; 40 mg; Agilent) and settled for 5 min. The supernatants were eluted by applying a positive pressure (2 psi for 2 min) using a positive pressure manifold (PPM 96 processor, Agilent Techn.). […]

ɣ-H2AX phosphorylation = test: P-H2AX in tumor tissue (immunohistochemistry, Western blot); format: in vivo, human; details: tumors 3 h after last dose, 80 mg/kg, N = 4
Method: as §1, §2, §3, §4, §5

SMILES | IC50 (MNNG/HOS) | EGFR phosphorylation of Tyr 1068 in tumors vs vehicle [1] | in vivo metabolism of administered drug (LC-MS) [2] | ɣ-H2AX phosphorylation in tumors vs control (ɣ-H2AX phosphorylation) | concentration of released ZR2002 in treated tumors relative to ZR2002-treated tumors [2] | concentrations of ZR2002 metabolite in treated tumors and plasma vs ZR2002-treated ([2]; tumors and plasma)
ClCCNc1ccc2ncnc(Nc3cccc(Br)c3)c2c1 [ZR2002] | 310 ± 90 nM | reduced | partially metabolized into its deschloroethyl metabolite “RB10” (peak 1) and RB10-N-acetyl (peak 2) | enhanced in comparison with the control, even if it was not statistically significant |  | 
CN(CCCl)c1ccc2ncnc(Nc3cccc(Br)c3)c2c1 [JS84] | 880 ± 430 nM | detectable EGFR phosphorylation | partially intact and largely converted into RB10-Methyl (peak 7), RB10 (1) and RB10-N-Acetyl (2) | low levels of H2AX phosphorylation | five times lower | significantly lower
ClCCN(CCCl)c1ccc2ncnc(Nc3cccc(Br)c3)c2c1 [JS61] | 5860 ± 150 nM | detectable EGFR phosphorylation | remained largely intact | low levels of H2AX phosphorylation | five times lower | 
